Measured values taken from ChEMBL document CHEMBL1145667, “Carboxyatractyloside: A Compound from Xanthium strumarium and Atractylis gummifera with Plant Growth Inhibiting Properties. The Probable "Inhibitor A"” (1983).
The source made the active and inactive calls. The rule behind the calls is not given here.

What was measured:
[1] = system: Triticum aestivum; assay: Growth inhibition of etiolated wheat coleoptiles at 1000 uM after 24 hrs at 22 degC in dark relative to control; type: functional; details: read-out: GI
[2] = system: Triticum aestivum; assay: Growth inhibition of etiolated wheat coleoptiles at 100 uM after 24 hrs at 22 degC in dark relative to control; type: functional; details: read-out: GI
[3] = system: Triticum aestivum; assay: Growth inhibition of etiolated wheat coleoptiles at 10 uM after 24 hrs at 22 degC in dark relative to control; type: functional; details: read-out: GI
[4] = system: Triticum aestivum; assay: Growth inhibition of etiolated wheat coleoptiles at 0.60 to 0.90 retention factor by paper chromatograms relative to control; type: functional
[5] = system: Zea mays; assay: Growth inhibition of green house corn seedling assessed as necrotic lesions at 10000 uM after 72 hrs; type: functional, organism-based
[6] = system: Zea mays; assay: Growth inhibition of green house corn seedling assessed as chlorosis at 1000 uM after 72 hrs; type: functional, organism-based
[7] = system: Zea mays; assay: Growth inhibition of green house corn seedling assessed as chlorosis at 100 uM after 72 hrs; type: functional, organism-based
[8] = system: Zea mays; assay: Growth inhibition of green house corn seedling assessed as stunting at 1000 uM after 72 hrs; type: functional, organism-based
[9] = system: Zea mays; assay: Growth inhibition of green house corn seedling assessed as stunting at 100 uM after 72 hrs; type: functional, organism-based
[10] = system: Zea mays; assay: Growth inhibition of green house corn seedling assessed as necrotic lesions at 10000 uM after 1 week relative to control; type: functional; details: 168 h, read-out: GI
[11] = system: Zea mays; assay: Growth inhibition of green house corn seedling assessed as stunting at 10000 uM after 1 week relative to control; type: functional; details: 168 h, read-out: GI
[12] = system: Zea mays; assay: Growth inhibition of green house corn seedling assessed as whorls and chlorosis of the leaf margins at 1000 uM relative to control; type: functional; details: read-out: GI
[13] = system: Zea mays; assay: Growth inhibition of green house corn seedling at 10000 uM after 2 weeks relative to control; type: functional; details: 336 h, read-out: GI
[14] = system: Zea mays; assay: Growth inhibition of green house corn seedling at 1000 uM after 2 weeks relative to control; type: functional; details: 336 h, read-out: GI
[15] = system: Nicotiana tabacum; assay: Growth inhibition of green house tobacco seedlings assessed as cupping of leaves at 10000 uM within 24 hrs; type: functional, organism-based
[16] = system: Nicotiana tabacum; assay: Growth inhibition of green house tobacco seedlings assessed as cupping of leaves at 1000 uM within 24 hrs; type: functional, organism-based
[17] = system: Nicotiana tabacum; assay: Growth inhibition of green house tobacco seedlings assessed as cupping of leaves at 100 uM within 24 hrs; type: functional, organism-based
[18] = system: Nicotiana tabacum; assay: Growth inhibition of green house tobacco seedlings assessed as cupping of leaves resembling tobacco at 10000 uM at 2 to 7 degC after 24 hrs; type: functional, organism-based
[19] = system: Nicotiana tabacum; assay: Growth inhibition of green house tobacco seedlings assessed as cupping of leaves resembling tobacco at 1000 uM at 2 to 7 degC after 24 hrs; type: functional, organism-based
[20] = system: Nicotiana tabacum; assay: Growth inhibition of green house tobacco seedlings assessed as cupping of leaves resembling tobacco at 100 uM at 2 to 7 degC after 24 hrs; type: functional, organism-based
[21] = system: Nicotiana tabacum; assay: Growth inhibition of green house tobacco seedlings assessed as cupping of the leaves at 10000 uM at 18.5 degC after 24 hrs; type: functional, organism-based
[22] = system: Nicotiana tabacum; assay: Growth inhibition of green house tobacco seedlings assessed as cupping of the leaves at 1000 uM at 18.5 degC after 24 hrs; type: functional, organism-based
[23] = system: Nicotiana tabacum; assay: Growth inhibition of green house tobacco seedlings assessed as cupping of the leaves at 100 uM at 18.5 degC after 24 hrs; type: functional, organism-based
[24] = system: Nicotiana tabacum; assay: Growth inhibition of green house tobacco seedlings assessed as cupping of the leaves at 10000 uM after 72 hrs at 18.5 degC; type: functional, organism-based
[25] = system: Nicotiana tabacum; assay: Growth inhibition of green house tobacco seedlings assessed as cupping of the leaves at 1000 uM after 72 hrs at 18.5 degC; type: functional, organism-based
[26] = system: Nicotiana tabacum; assay: Growth inhibition of green house tobacco seedlings assessed as cupping of the leaves at 100 uM after 72 hrs at 18.5 degC; type: functional, organism-based
[27] = system: Triticum aestivum; assay: Growth inhibition of etiolated wheat coleoptiles at 0.00 to 0.10 retention factor by paper chromatograms relative to control; type: functional; parameters: scale not given: the % may be the effect or the level left
[28] = system: Triticum aestivum; assay: Growth inhibition of etiolated wheat coleoptiles at 0.10 to 0.20 retention factor by paper chromatograms relative to control; type: functional; parameters: scale not given: the % may be the effect or the level left
[29] = system: Triticum aestivum; assay: Growth inhibition of etiolated wheat coleoptiles at 0.20 to 0.30 retention factor by paper chromatograms relative to control; type: functional; parameters: scale not given: the % may be the effect or the level left

SMILES: CC1=CC(=O)CC(C)(C)C1(O)/C=C/C(C)=C\C(=O)O (racemic) [ABSCISIC ACID]
- inhibition of growth at 1000 µM [1]: 100%
- inhibition of growth at 100 µM [2]: 90%
- inhibition of growth at 10 µM [3]: 69%
- growth inhibition (GI) [4]: 100%

SMILES: C=C1[C@H]2CC[C@H]3[C@]4(C)C[C@H](O[C@@H]5O[C@H](CO)[C@@H](OS(=O)(=O)O)[C@H](OS(=O)(=O)O)[C@H]5OC(=O)CC(C)C)CC(C(=O)[O-])(C(=O)[O-])[C@H]4CC[C@]3(C2)[C@H]1O.[K+].[K+] [POTASSIUM CARBOXYATRACTYLOSIDE]
- inhibition of growth at 1000 µM [1]: 100%
- inhibition of growth at 100 µM [2]: 91%
- inhibition of growth at 10 µM [3]: 48%
- Activity [5]: Active
- Activity [6]: Active
- Activity [7]: Active
- Activity [8]: Active
- Activity [9]: Active
- inhibition of growth at 10000 µM [10]: 50%
- inhibition of growth at 10000 µM [11]: 50%
- inhibition of growth at 1000 µM [12]: 25%
- inhibition of growth at 10000 µM [13]: 43%
- inhibition of growth at 1000 µM [14]: 14%
- Activity [15]: Active
- Activity [16]: Active
- Activity [17]: Active
- Activity [18]: Active
- Activity [19]: Active
- Activity [20]: Active
- Activity [21]: Active
- Activity [22]: Active
- Activity [23]: Active
- Activity [24]: Active
- Activity [25]: Active
- Activity [26]: Active
- Activity [27]: 88.4%
- Activity [28]: 76.7%
- Activity [29]: 86.4%
